US10195196B2, “1,4-disubstituted pyridazine analogs there of and methods for treating SMN-deficiency-related conditions” (NOVARTIS AG, priority 2012, dated 2019)

Tested on: SMN protein
Assay: cellular SMN ELISA (SMN protein elevation)
Type: cell-based
Settings: myoblast cell line from SMNdelta7 mouse model, 24 hours treatment; for SMN activity Fold: fold activation over DMSO control
Protocol: A cellular SMN ELISA was used to measure the effects of low molecular weight compounds on SMN protein elevation. Cells from a myoblast cell line derived from the SMNdelta7 mouse model (kind gift from Steve Burden, NYU) were seeded into a 384-well plate at a density of 3000 cells/well and treated with compounds for 24 hours. ELISA capture plates were prepared by coating 384-well plates (Immulon 4HBX) with 0.5 ug/mL of anti-SMN mAb (BD Science, Catalog number 610647) at 4° C. overnight. The plates were washed 5 times with 110 uL of PBS-Tween (0.05% Tween-20, PBST), blocked with 100 uL of 1% BSA in PBST for 2 hours and washed (5 times) with 100 uL of PBST. After 24 hours of compound treatment cells were lysed in a modified RIPA-buffer, on ice for 1 hour. 20 uL of lysate and 20 uL of 1% BSA were then added to the ELISA capture plates and incubated at 4° C. overnight. Plates were washed (5 times) with PBST and then incubated with 1:100 dilution of primary rabbit anti-SMN polyclonal antibody (Santa cruz, Catalog number SC-15320) at room temperature for 1 hour and subsequently washed (5 times) with 110 uL of PBST. This was followed by addition of 1:100 Goat anti-Rabbit IgG-HRP linked (Cell Signaling, Catalog number 7074) secondary antibody for 1 hour. Plates were then washed with PBST and incubated with 40 uL TMB substrate (Cell Signaling, Catalog number 7004L) at room temperature for 1-10 minutes with shaking. The reaction was stopped by addition of 40 uL of stop solution (Cell signaling, Catalog number 7002L) and absorption was measured at 450 nm. Data was reported as fold activation over DMSO control, and EC50.
ELISA assay condition 1: compound concentration range 20 nM-10 uM; ELISA assay condition 2: compound concentration 100 pM-10 uM.

[1] = ELISA condition 2: compound concentration 100 pM-10 uM
[2] = ELISA condition 1: compound concentration range 20 nM-10 uM

| EC50 [2] [nM] | Compound | EC50 [1] [nM] | SMN activity Fold [1] [Fold] | SMN activity Fold [2] [Fold] |
| --- | --- | --- | --- | --- |
|  | CN(c1ccc(-c2c(O)cc(-c3cn[nH]c3)cc2F)nn1)C1CC(C)(C)NC(C)(C)C1 [Example 40-7, 3-fluoro-2-(6-(methyl(2,2,6,6-tetramethylpiperidin-4-yl)amino)pyridazin-3-yl)-5-(1H-pyrazol-4-yl)phenol] | 4 | 2.80 |  |
|  | CN(c1ccc(-c2cc(-c3cnn4c3CNCC4)ccc2O)nn1)C1CC(C)(C)NC(C)(C)C1 [Example 32-3, 2-(6-(methyl(2,2,6,6-tetramethylpiperidin-4-yl)amino)pyridazin-3-yl)-4-(4,5,6,7-tetrahydropyrazolo[1,5-a]pyrazin-3-yl)phenol] | 201 | 2.44 |  |
|  | CN(c1ccc(-c2ccc(-c3cnn(CCN4CCOCC4)c3)cc2O)nn1)C1CC(C)(C)NC(C)(C)C1 [Example 16-1, 2-(6-(methyl(2,2,6,6-tetramethylpiperidin-4-yl)amino)pyridazin-3-yl)-5-(1-(2-morpholino-ethyl)-1H-pyrazol-4-yl)phenol] | 77 | 2.66 |  |
|  | CN(c1ccc(-c2cc(-c3c[nH]cn3)c(F)cc2O)nn1)C1CC(C)(C)NC(C)(C)C1 [Example 34-3, 5-fluoro-4-(1H-imidazol-4-yl)-2-(6-(methyl(2,2,6,6-tetramethylpiperidin-4-yl)amino)pyridazin-3-yl)phenol] | 27 | 2.56 |  |
|  | CN(c1ccc(-c2ccc3ccncc3c2)nn1)C1CC(C)(C)NC(C)(C)C1 [Example 1-14, 6-(isoquinolin-7-yl)-N-methyl-N-(2,2,6,6-tetramethylpiperidin-4-yl)pyridazin-3-amine] | 252 | 3.13 |  |
|  | COc1cc(-c2cnc3n2CCCC3)cc(O)c1-c1ccc(N(C)C2CC(C)(C)NC(C)(C)C2)nn1 [Example 26-2, 3-methoxy-2-(6-(methyl(2,2,6,6-tetramethylpiperidin-4-yl)amino)pyridazin-3-yl)-5-(5,6,7,8-tetrahydroimidazo[1,2-a]pyridin-3-yl)phenol] | 97 | 2.61 |  |
|  | CC1(C)CC(Nc2ccc(-c3ccc(C#N)cc3O)nn2)CC(C)(C)N1 [Example 30-2, 3-hydroxy-4-(6-((2,2,6,6-tetramethylpiperidin-4-yl)amino)pyridazin-3-yl)benzonitrile] | 62 | 2.98 |  |
|  | COc1ccc2cc(-c3ccc(N(C)C4CC(C)(C)NC(C)(C)C4)nn3)c(O)cc2c1 [Example 24-6, 7-methoxy-3-(6-(methyl(2,2,6,6-tetramethylpiperidin-4-yl)amino)pyridazin-3-yl)naphthalen-2-ol] | 6 | 2.39 |  |
| 1030 | CC1(C)CC(Nc2ccc(-c3ccc4scnc4c3)nn2)CC(C)(C)N1 [Example 2-2, 6-(benzo[d]thiazol-5-yl)-N-(2,2,6,6-tetramethyl-piperidin-4-yl)pyridazin-3-amine] |  |  | 2.37 |
|  | COc1ccc2cc(-c3ccc(N(C)C4CC(C)(C)N(C)C(C)(C)C4)nn3)c(O)cc2c1 [Example 24-7, 7-methoxy-3-(6-(methyl(1,2,2,6,6-pentamethylpiperidin-4-yl)amino)pyridazin-3-yl)naphthalen-2-ol] | 31 | 2.57 |  |
|  | CN(c1ccc(-c2ccc(-c3ncc[nH]3)cc2O)nn1)C1CC(C)(C)NC(C)(C)C1 [Example 42-1, 5-(1H-imidazol-2-yl)-2-(6-(methyl(2,2,6,6-tetramethylpiperidin-4-yl)amino)pyridazin-3-yl)phenol] | 117 | 2.28 |  |
|  | CN(c1ccc(-c2c(O)cc(-c3cn[nH]c3)cc2OC(F)(F)F)nn1)C1CC(C)(C)NC(C)(C)C1 [Example 25-5, 2-(6-(methyl(2,2,6,6-tetramethylpiperidin-4-yl)amino)pyridazin-3-yl)-5-(1H-pyrazol-4-yl)-3-(trifluoromethoxy)phenol] | 96 | 2.36 |  |
| 620 | CN1C(C)(C)CC(Nc2ccc(-c3ccc(Cl)cc3O)nn2)CC1(C)C [Example 3-4, 5-chloro-2-(6-(1,2,2,6,6-pentamethylpiperidin-4-ylamino)pyridazin-3-yl)phenol] |  |  | 2.03 |
|  | CN(c1ccc(-c2c(O)cc(-c3ccn(C)c(=O)c3)cc2OC(F)(F)F)nn1)C1CC(C)(C)NC(C)(C)C1 [Example 25-6, 4-(3-hydroxy-4-(6-(methyl(2,2,6,6-tetramethylpiperidin-4-yl)amino)pyridazin-3-yl)-5-(trifluoromethoxy)phenyl)-1-methylpyridin-2(1H)-one] | 107 | 2.16 |  |
|  | CN(c1ccc(-c2ccc(-c3nc([N+](=O)[O-])c[nH]3)cc2O)nn1)C1CC(C)(C)NC(C)(C)C1 [Example 42-8, 2-(6-(methyl(2,2,6,6-tetramethylpiperidin-4-yl)amino)pyridazin-3-yl)-5-(4-nitro-1H-imidazol-2-yl)phenol] | 756 | 2.82 |  |
|  | CN(c1ccc(-c2ccc3nccn3c2)nn1)C1CC(C)(C)NC(C)(C)C1 [Example 1-16, 6-(imidazo[1,2-a]pyridin-6-yl-pyridazin-3-yl)-methyl-(2,2,6,6-tetramethyl-piperidin-4-yl)-amine] | 2980 | 2.28 |  |
|  | CN(c1ccc(-c2cc3ccc(OC(C)(C)CCO)cc3cc2O)nn1)C1CC(C)(C)NC(C)(C)C1 [Example 24-11, 7-((4-hydroxy-2-methylbutan-2-yl)oxy)-3-(6-(methyl(2,2,6,6-tetramethylpiperidin-4-yl)amino)pyridazin-3-yl)naphthalen-2-ol] | 133 | 2.54 |  |
|  | CN(c1ccc(-c2c(O)cc(-c3cnn(C)c3)cc2F)nn1)C1CC(C)(C)NC(C)(C)C1 [Example 40-8, 3-fluoro-2-(6-(methyl(2,2,6,6-tetramethylpiperidin-4-yl)amino)pyridazin-3-yl)-5-(1-methyl-1H-pyrazol-4-yl)phenol] | 16 | 3.18 |  |
|  | CN(c1ccc(-c2cc(Cl)c(-c3cn[nH]c3)cc2O)nn1)C1CC(C)(C)NC(C)(C)C1 [Example 34-1, 4-chloro-2-(6-(methyl(2,2,6,6-tetramethylpiperidin-4-yl)amino)pyridazin-3-yl)-5-(1H-pyrazol-4-yl)phenol] | 7 | 2.80 |  |
|  | CN(c1ccc(-c2ccc(-c3ccn4cncc4c3)cc2O)nn1)C1CC(C)(C)NC(C)(C)C1 [Example 41-18, 5-(imidazo[1,5-a]pyridin-7-yl)-2-(6-(methyl(2,2,6,6-tetramethylpiperidin-4-yl)amino)pyridazin-3-yl)phenol] | 17 | 2.44 |  |
|  | CN(c1ccc(-c2ccc(-c3ccccc3)nc2)nn1)C1CC(C)(C)NC(C)(C)C1 [Example 1-17, methyl-[6-(6-phenyl-pyridin-3-yl)-pyridazin-3-yl]-(2,2,6,6-tetramethyl-piperidin-4-yl)-amine] | 926 | 2.37 |  |
|  | CN(c1ccc(-c2ccc(-c3ccnc(O)c3)cc2O)nn1)C1CC(C)(C)NC(C)(C)C1 [Example 41-3] | 66 | 3.10 |  |
|  | COc1cncc(-c2ccc(-c3ccc(N(C)C4CC(C)(C)NC(C)(C)C4)nn3)c(O)c2)c1 [Example 41-1, 5-(5-methoxypyridin-3-yl)-2-(6-(methyl(2,2,6,6-tetramethylpiperidin-4-yl)amino)pyridazin-3-yl)phenol] | 125 | 2.78 |  |
| 650 | CC1(C)CC(Nc2ccc(-c3cnc4ccccc4c3)nn2)CC(C)(C)N1 [Example 1-5, 6-(quinolin-3-yl)-N-(2,2,6,6-tetramethyl-piperidin-4-yl)pyridazin-3-amine] |  |  | 2.50 |
|  | CC1(C)CC(Oc2ccc(-c3ccc(-n4cccn4)cc3O)nn2)CCN1 (stereo not drawn) [Example 31-1, 2-(6-((2,2-dimethylpiperidin-4-yl)oxy)pyridazin-3-yl)-5-(1H-pyrazol-1-yl)phenol] | 200 | 3.03 |  |
|  | CN(c1ccc(-c2c(O)cc(-c3cn[nH]c3)cc2O)nn1)C1CC(C)(C)NC(C)(C)C1 [Example 25-1, 2-(6-(methyl(2,2,6,6-tetramethylpiperidin-4-yl)amino)pyridazin-3-yl)-5-(1H-pyrazol-4-yl)benzene-1,3-diol] | 84 | 2.58 |  |
|  | OCCN1C[C@@H]2CN(c3ccc(-c4ccc(-c5cn[nH]c5)cc4O)nn3)C[C@@H]2C1 [Example 43-1, 2-(6-((3aR,6aS)-5-(2-hydroxyethyl)hexahydropyrrolo[3,4-c]pyrrol-2(1H)-yl)pyridazin-3-yl)-5-(1H-pyrazol-4-yl)phenol] | 40 | 3.04 |  |
